Assay results from patent publication US20170267727A1, “Conjugates of pH Low Insertion Peptide and Monomethyl Auristatins in the Treatment of Solid Tumors” (Lehigh University, priority 2016, published 2017).
“Also recorded” adds a separate entry of the source. Positions of bridges follow the written chain, without caps; N, C: chain ends. Non-standard residues stand in square brackets, D forms with d. Residues, ends and D or L forms follow the SMILES beside them. Chains are numbered I, II in the order given. No end group written: not given here. *: point of attachment. Dolaproine = CO[C@@H]([C@@H]1CCCN1)[C@@H](C)C(=O)O; Dil = CC[C@H](C)[C@H](NC)[C@@H](CC(=O)O)OC; X1 = C[C@@H](N*)[C@@H](O)c1ccccc1; NMeV = CN[C@H](C(=O)O)C(C)C; Mpa = O=C(O)CCS

Experiments:
[1] = cited from earlier work
[2] = cited from earlier work; remark: listed apart in the source
HeLa cells [3] = assay: Cell proliferation with free drug, 72 hours incubation, MTT assay; assay type: cell-based, Human; settings: incubated with the cells for 72 hours; read-out: IC50 against HeLa cells
Description: FIG. 6A and FIG. 6B show inhibition of HeLa (FIG. 6A) and MDA-MB-231 (FIG. 6B) cell proliferation by free MMAE modified with a succinimide nitrophenyl-based linker (MMAE+linker) and by unmodified MMAE. For each cell assay 3,000 cells/well were seeded, allowed to adhere overnight and incubated with either compound for 72 hours in complete medium at physiologic pH. Cell viability was determined with the MTT assay. All measurements were normalized to the 1% DMSO controls. Results are shown as mean±SD (n=6). Data were fitted with a sigmoidal dose response function in Prism for Mac (GraphPad Software, Inc.).
Cell Culture. Human cervical adenocarcinoma HeLa cells and human breast adenocarcinoma MDA-MB-231 cells were cultured in Dulbecco's modified Eagle's medium (DMEM supplemented with 10% FBS, 100 U/mL penicillin, and 0.1 mg/mL streptomycin in a humidified atmosphere of 5% CO2 at 37° C.

MDA-MB-231 cells = assay: Anti-proliferation Assay (2 hours treatment at pH 7.4 or 5.0, 72 hours growth, MTT)
Description: (§1) FIG. 3A, FIG. 3C and FIG. 3E show HeLa cells treated with pHLIP(WT)-MMAE, pHLIP(D25E)-MMAE, and MMAE(linker), respectively. FIG. 3B, FIG. 3D and FIG. 3F show MDA-MB-231 cells treated with pHLIP(WT)-MMAE, pHLIP(D25E)-MMAE, and MMAE(linker), respectively. Black columns represent cells treated at pH 7.4 and cells treated at low pH are shown in grey. For each condition, 3,000 cells/well (96-well plate) were seeded, allowed to adhere overnight, treated for 2 hours, washed once with media and grown for 72 hour in complete medium at physiologic pH. Cell viability was assessed with the MTT assay. All measurements were normalized to the media control (0 μM, pH 7.4), as 100% cell viability. Results are shown as mean±SD (n=6-9).
(§2) Anti-proliferation Assay. HeLa and MDA-MB-231 cells were seeded in 96-well plates at a density of 3,000 cells/well and incubated overnight. Before treatment, construct aliquots were solubilized in an appropriate volume of DMEM without FBS (pH 7.4)—so that upon pH adjustment the desired treatment concentration is obtained—and gently sonicated for 30-60 seconds using a bath sonicator (Branson Ultrasonics). After removal of cell media, this treatment solution was added to each well and incubated at 37° C. for 5-10 minutes. The pH was then adjusted to the desired value using a pre-established volume of DMEM, pH 2.0 buffered with citric acid (final volume=50 μL) and the plate was incubated at 37° C. for 2 hours. After treatment, the media was removed, cells were washed once with 100 μL of complete DMEM, and 100 μL of complete medium was added to each well before returning the plate to the incubator. Treatment solutions were collected and their pH values measured using a micro-combination pH probe (Microelectrodes, Inc.). […] Cell viability was determined after 72 hours using the colorimetric MTT assay. Briefly, 10 μL of a 5 mg/mL MTT stock solution was added to the treated cells and incubated for 2 hours at 37° C. The resulting formazan crystals were solubilized in 200 μL DMSO and the absorbance measured at 580 nm using an Infinite 200 PRO microplate reader (Tecan). Cell viability was calculated against control cells treated with media at physiologic pH.
(§3) Inhibition of Cell Proliferation. The ability of pHLIP to move MMAE across the cell membrane and to inhibit cancer cell proliferation in concentration and pH-dependent manners was evaluated. Cell treatments for both pHLIP(WT)-MMAE and pHLIP(D25E)-MMAE constructs were carried out with conjugate concentrations ranging from 1.25 to 10 μM at either pH 7.4 or 5.0. After a 2-hour incubation at 37° C., the treatment media was replaced by fresh media, and cells were grown for an additional 72 hours at normal pH before assessing cell viability using the MTT assay. […] This treatment protocol is quite stringent when compared to the typical multi-days exposure treatments used with free drugs (FIG. 6A and FIG. 6B).

HeLa cells [4] = assay: as above
Description: as §1
HeLa cells treated with pHLIP(WT)-MMAF (FIG. 9A), pHLIP(D25E)-MMAF (FIG. 9B), pHLIP(P20G)-MMAF (FIG. 9C), and pHLIP(R11Q)-MMAF (FIG. 9D). Circles represent cells treated at pH 7.4 and squares represent cells treated at pH 5.0. Results are shown as the mean±SEM (n=6-9).
as §2, §3

HeLa tumors = settings: end of the three week study, n=8
Description: HeLa (ATCC#CCL-2) were injected subcutaneously into the inguinal space of female Ncr nu/nu mice. Tumors were allowed to develop until they were approximately 75 mm^3 in size. […] On days 1, 3, 5, and 8, animals were injected intravenously with 200 microliters of either pHLIP-MMAF (20 microM in PBS+1% DMSO) or vehicle control (PBS+1% DMSO). Tumors were measured with calipers on routine basis for approximately 3 weeks and tumor volumes calculated with the formula: length×width×(height×0.5). Animals were euthanized when tumors reached a volume of 500 mm^3. FIG. 10A depicts tumor growth as a function of initial tumor volume. FIG. 10B depicts tumor volume. FIG. 10C depicts overall survival.
HeLa (ATCC#: CCL-2) were injected subcutaneously (s.c.) into the inguinal space of female Ncr nu/nu mice. Tumors were allowed to develop until they were approximately 75 mm^3 in size. […] On days 1, 3, 5, and 8 animals were injected intravenously with 200 microliters of either pHLIP-MMAF (20 microM in PBS+1% DMSO) or vehicle control (PBS+1% DMSO). Tumors were measured with calipers on routine basis for approximately 3 weeks and tumor volumes calculated with the formula Length×Width×(Height×0.5). […] A tumor volume of 500 mm^3 was prospectively set as the stopping point for this study.

A431 tumors = settings: i.p., 1 mg/kg
[5] = Toxicity Studies (CBC and comprehensive metabolic panel); assay type: in vivo; settings: four 1 mg/kg injections on days 1, 3, 5 and 7; monitored 2 weeks after final injection
Description: Four one milligram/kilogram (1 mg/kg) injections of pHLIP(WT)-MMAF are given to subjects on days 1, 3, 5 and 7. Overall health, liver and kidney function, and electrolytes are monitored using a complete blood count (CBC) and comprehensive metabolic panel, for a period of 2 weeks after the final injection.

[6] = cited from earlier work; remark: listed apart in the source
[7] = 2.5 μL (so in the source), low pH

Which IC50 [1] does the source give for `CC[C@H](C)[C@@H]([C@@H](CC(=O)N1CCC[C@H]1[C@H](OC)[C@@H](C)C(=O)N[C@@H](Cc1ccccc1)c1nccs1)OC)N(C)C(=O)[C@@H](NC(=O)[C@H](C(C)C)N(C)C)C(C)C` [Dolastatin 10] here?
Its IC50 is 0.1 nM.

And the “Log P o/w” value [2]?
Its value is 3.4.

Which results are given for `CC[C@H](C)[C@@H]([C@@H](CC(=O)N1CCC[C@H]1[C@H](OC)[C@@H](C)C(=O)N[C@H](C)[C@@H](O)c1ccccc1)OC)N(C)C(=O)[C@@H](NC(=O)[C@@H](NC)C(C)C)C(C)C` [MMAE, monomethyl auristatin E, reference compound] (H-[NMeV]V[Dil][Dolaproine]-X1)?
IC50 (HeLa cells [3]): ~4 nM; IC50 [1]: 0.1 to 2 nM; cytotoxicity (MDA-MB-231 cells; [7]): 20-30%; Log P o/w [2]: 2.2; cytotoxicity (HeLa cells [4]; [7]): 20-30%; cytotoxicity (HeLa cells [4]; physiological pH, 5 μM): about 70%

What does the source list for `CC[C@H](C)[C@@H]([C@@H](CC(=O)N1CCC[C@H]1[C@H](OC)[C@@H](C)C(=O)N[C@@H](Cc1ccccc1)C(=O)O)OC)N(C)C(=O)[C@@H](NC(=O)[C@@H](NC)C(C)C)C(C)C` [MMAF, monomethyl auristatin F] (H-[NMeV]V[Dil][Dolaproine]F-OH)?
IC50 [1]: 105 to 250 nM; Log P o/w [2]: 0.7

With `CC[C@H](C)[C@@H]([C@@H](CC(=O)N1CCC[C@H]1[C@H](OC)[C@@H](C)C(=O)N[C@@H](Cc1ccccc1)C(=O)OC)OC)N(C)C(=O)[C@@H](NC(=O)[C@@H](NC)C(C)C)C(C)C` [MMAF-Ome, monomethyl auristatin F-OMe] (H-[NMeV]V[Dil][Dolaproine]F-OMe) as the molecule, how does the IC50 [1] read?
The IC50 was 0.001 nM.

What about the “Log P o/w” value [2] of the same molecule?
Its value is 2.8.

Which “animals removed for tumor size exceeding 500 mm^3” value (HeLa tumors) does the source give for “I: AAEQNPIYWARYADWLFTTPLLLLDLALLVDADEGTCG-NH2 / II: [Mpa][NMeV]V[Dil][Dolaproine]F (disulfide I:37-II:1; C-terminus assumed) [pHLIP(WT)-MMAF]” here?
The value was “only a single animal”.

What about the “effect on A431 tumors” value (A431 tumors) of the same molecule?
Its value is “Analogous results were obtained”.

And the “overall health, liver and kidney function, electrolytes” value [5]?
Its value is “Clinically significant differences in overall health, liver and kidney function, and electrolytes were not observed”.

And the “improvement over treatments with pHLIP(WT)-MMAE” value (HeLa cells [4])?
Its value is “ca. 100 fold”.

What about the cell killing (HeLa cells [4]; pH 7.4 versus pH 5.0) of the same molecule?
The cell killing was “clear pH-selective and concentration-dependent killing”.

With amanitin as the molecule, how does the pKa of insertion [6] read?
The pKa of insertion was 5.9.

What does the source list for “pHLIP(D25E) (AAEQNPIYWARYADWLFTTPLLLLELALLVDADEGTCG-NH2) [reference compound]”?
effect of peptide alone on cell viability (MDA-MB-231 cells; 10 μM, pH 7.4 or pH 5.0): not cytotoxic; also recorded: neither pHLIP(WT) or pHLIP(D25E) peptides have any harmful effects; pKa of insertion [6]: 6.49; effect of peptide alone on cell viability (HeLa cells [4]; 10 μM, pH 7.4 or pH 5.0): not cytotoxic; also recorded: neither pHLIP(WT) or pHLIP(D25E) peptides have any harmful effects
